Columns and labels:
ABCA1 gene = assay: Quantitative analysis of ABCA1 gene regulation in THP-1 cells (real-time PCR); assay type: cell-based, human; settings: for Emax: Gene regulation by LXR (Human), differentiated THP-1 cells, 18 hrs, LXR agonist reference at 1.0 uM as positive control, read-out: Agonism ABCA1; for EC50: Homo sapiens, THP-1, 18 h, read-out: EC50 ABCA1
Protocol: III. Quantitative Analysis of ABCA1 Gene Regulation in THP-1 Cells. The compounds of formula (I) effect on the regulation of the ABCA1 gene was evaluated using the following procedure. Materials and Methods Cell culture: The THP-1 monocytic cell line (ATCC #TIB-202) was obtained from American Type Culture Collection (Manassas, Va.) and cultured in RPMI 1640 medium (Gibco, Carlsbad, Calif.) containing 10% FBS, 2 mM L-glutamine, and 55 uM beta-Mercaptoethanol (BME). […] Louis, Mo.) for three days to induce differentiation into adherent macrophages. Differentiated THP-1 cells were treated with test compounds or ligands dissolved in DMSO (Sigma, D-8779) in culture medium lacking phorbal ester. […] Dose response effects were measured in duplicate, in the range of 0.001 to 30 micromolar concentrations and treated cells were incubated for an additional 18 hrs prior to RNA isolation. Unstimulated cells treated with vehicle were included as negative controls on each plate. […] L., J. Med. Chem. (2000), 45:1963-1966.). Results of antagonist analysis are expressed as % antagonism and IC50 (in μM). RNA isolation and quantitation: Total cellular RNA was isolated from treated cells cultured in 96-well plates using PrepStation 6100 (Applied Biosystems, Foster City, Calif.), according to the manufacturer's recommendations. RNA was resuspended in ribonuclease-free water and stored at -70° C. prior to analysis. RNA concentrations were quantitated with RiboGreen test procedure, #R-11490 (Molecular Probes, Eugene, Oreg.). Gene expression analysis: Gene-specific mRNA quantitation was performed by real-time PCR with the Perkin Elmer Corp. chemistry on an ABI Prism 7700 Sequence detection system (Applied Biosystems, Foster City, Calif.) according to the manufacturer's instructions. Samples (50-100 ng) of total RNA were assayed in duplicate or triplicate in 50 ul reactions using one-step RT-PCR and the standard curve method to estimate specific mRNA concentrations. Sequences of gene-specific primer and probe sets were designed with Primer Express Software (Applied Biosystems, Foster City, Calif.). […] Relative levels of ABCA1 mRNA are normalized using GAPDH mRNA or 18S rRNA probe/primer sets purchased commercially (Applied Biosystems, Foster City, Calif.). Statistics: Mean, standard deviation and statistical significance of duplicate evaluations of RNA samples were assessed using ANOVA, one-way analysis of variance using SAS analysis. Reagents: -GAPDH Probe and Primers-Taqman GAPDH Control Reagents 402869 or 4310884E 18S Ribosomal RNA-Taqman 18S Control Reagents 4308329 […] Qiagen Quantitect probe RT-PCR 204443.

human LXRβ = target: T1, human LXRβ (Homo sapiens, UniProt P55055); assay: Ligand-binding test procedure for human LXRβ (3H T0901317 tracer, flash plates); settings: biotinylated hLXRβ from E. coli extract; tracer 3H T0901317
T1 construct: biotin (biotinylated); made in house; host or cells: E. coli (crude extract)
T1 sequence (P55055 1-460): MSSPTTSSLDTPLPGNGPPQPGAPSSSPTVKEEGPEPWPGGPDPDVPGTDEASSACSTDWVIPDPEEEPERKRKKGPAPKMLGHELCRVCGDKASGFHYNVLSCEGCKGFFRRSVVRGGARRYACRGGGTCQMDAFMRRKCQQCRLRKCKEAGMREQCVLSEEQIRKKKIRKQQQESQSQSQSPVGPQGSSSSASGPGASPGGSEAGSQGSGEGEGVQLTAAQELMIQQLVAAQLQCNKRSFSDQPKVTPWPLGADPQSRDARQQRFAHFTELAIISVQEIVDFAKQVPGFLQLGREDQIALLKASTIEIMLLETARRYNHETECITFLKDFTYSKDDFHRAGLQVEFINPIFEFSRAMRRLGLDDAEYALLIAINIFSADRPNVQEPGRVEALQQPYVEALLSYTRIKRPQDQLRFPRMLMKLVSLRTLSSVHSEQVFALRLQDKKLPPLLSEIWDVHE
Protocol: I. Ligand-Binding Test Procedure for Human LXRβ.
Receptor source: E. coli extract from cells expressing biotinylated hLXRβ. Extract was made in a similar buffer as above, but with 50 mM TRIS.
(§1) Washed streptavidin and coated flash plates with wash buffer. Diluted receptor extract to give Bmax ˜4000 cpm and add to the wells. Wrapped the plates in aluminum foil and stored them at +4° C. over night.
(§2) Made a dilution series in DMSO of the test ligands. Made a 5 nM solution of the radioactive tracer in buffer. Mixed 250 μl diluted tracer with 5 μl of the test ligand from each concentration of the dilution series. Washed the receptor-coated flash plates. Added 200 μl per well of the ligand/radiolabel mixture to the receptor-coated flash plates. Wrapped the plates in aluminum foil and incubate at +4° C. over night.
(§3) Aspirated wells, and wash the flashed plates. Sealed the plate. Measured the remaining radioactivity in the plate.

human LXRα = target: T2, human LXRα (Homo sapiens, UniProt Q13133); assay: Ligand-binding test procedure for human LXRα (3H T0901317 tracer, flash plates); settings: biotinylated hLXRα from E. coli extract; tracer 3H T0901317
T2 construct: biotin (biotinylated); made in house; host or cells: E. coli (crude extract)
T2 sequence (Q13133 1-447): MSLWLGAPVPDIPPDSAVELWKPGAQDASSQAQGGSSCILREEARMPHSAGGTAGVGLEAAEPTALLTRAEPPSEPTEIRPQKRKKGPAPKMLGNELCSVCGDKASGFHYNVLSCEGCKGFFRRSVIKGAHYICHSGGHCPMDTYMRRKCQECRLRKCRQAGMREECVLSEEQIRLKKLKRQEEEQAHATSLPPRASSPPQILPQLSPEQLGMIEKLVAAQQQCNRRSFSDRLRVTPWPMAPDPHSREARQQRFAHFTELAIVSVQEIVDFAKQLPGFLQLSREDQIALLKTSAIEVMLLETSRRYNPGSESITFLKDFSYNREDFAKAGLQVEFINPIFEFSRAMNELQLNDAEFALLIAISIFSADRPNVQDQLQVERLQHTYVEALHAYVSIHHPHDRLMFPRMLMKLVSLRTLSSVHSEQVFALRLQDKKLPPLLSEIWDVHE
Protocol: II. Ligand-Binding Test Procedure for Human LXRα.
Receptor source: E. coli extract from cells expressing biotinylated hLXRα. Extract was made in a similar buffer as above, but with 50 mM TRIS.
as §1, §2, §3

| SMILES | Emax (ABCA1 gene) [%] | EC50 (ABCA1 gene) [nM] | IC50 (human LXRβ) [nM] | IC50 (human LXRα) [nM] |
| --- | --- | --- | --- | --- |
| CCS(=O)(=O)c1cccc(Oc2cccc(-c3c(C)nc4c(C(F)(F)F)cccn34)c2)c1 [Example 10, 2-methyl-3-(3-(3-(ethylsulfonyl)phenoxy)phenyl)-8-(trifluoromethyl)imidazo[1,2-a]pyridine] | 91 | 552 |  |  |
| CCc1nc2c(C(F)(F)F)cccn2c1-c1cccc(Oc2cccc(S(C)(=O)=O)c2)c1 [Example 17, 2-ethyl-3-(3-(3-(methylsulfonyl)phenoxy)phenyl)-8-(trifluoromethyl)imidazo[1,2-a]pyridine] | 91 | 99 |  |  |
| CNS(=O)(=O)c1cccc(Oc2cccc(-c3c(C(C)C)nc4c(Cl)cccn34)c2)c1 [Example 49, 3-[3-(8-chloro-2-isopropylimidazo[1,2-a]pyridin-3-yl)phenoxy]-N-methylbenzenesulfonamide] | 101 | 794 |  |  |
| CC(C)c1nc2c(C(F)(F)F)cccn2c1-c1cccc(OCc2cccc(S(C)(=O)=O)c2)c1 [Example 52, 2-isopropyl-3-(3-{[3-(methylsulfonyl)benzyl]oxy}phenyl)-8-(trifluoromethyl)imidazo[1,2-a]pyridine] | 86 | 2380 |  |  |
| CC(C)c1nc2c(Cl)cccn2c1-c1cccc(Oc2cccc(S(C)(=O)=O)c2)c1 [Example 66, 8-chloro-2-isopropyl-3-{3-[3-(methylsulfonyl)phenoxy]phenyl}imidazo[1,2-a]pyridine] | 74 | 625 |  |  |
| CCc1nc2c(C(F)(F)F)cccn2c1-c1ccc(Oc2cccc(S(=O)(=O)CC)c2)cc1 [Example 105, 2-ethyl-3-{4-[3-(ethylsulfonyl)phenoxy]phenyl}-8-(trifluoromethyl)imidazo[1,2-a]pyridine] |  |  | 230 | > 1000 |
| CCc1nc2c(Cl)cccn2c1-c1ccc(Oc2cccc(S(=O)(=O)CC)c2)cc1 [Example 106, 8-chloro-2-ethyl-3-{4-[3-(ethylsulfonyl)phenoxy]phenyl}imidazo[1,2-a]pyridine] |  |  | 430 | > 1000 |
| CCc1nc2c(Cl)cccn2c1-c1cccc(COc2cccc(S(C)(=O)=O)c2)c1 [Example 109, 8-chloro-2-ethyl-3-(3-{[3-(methylsulfonyl)phenoxy]methyl}phenyl)imidazo[1,2-a]pyridine] |  |  | 268 | > 1000 |
| CCc1nc2c(C(F)(F)F)cccn2c1-c1ccc(COc2cccc(S(C)(=O)=O)c2)cc1 [Example 111, 2-ethyl-3-(4-{[3-(methylsulfonyl)phenoxy]methyl}phenyl)-8-(trifluoromethyl)imidazo[1,2-a]pyridine] |  |  | > 1000 | > 1000 |
| CC(C)c1nc2c(C#N)cccn2c1-c1cccc(Oc2cccc(CS(C)(=O)=O)c2)c1 [Example 115, 2-isopropyl-3-(3-{3-[(methylsulfonyl)methyl]phenoxy}phenyl)imidazo[1,2-a]pyridine-8-carbonitrile] |  |  | > 1000 | > 1000 |
| CC(C)(C)c1nc2c(C#N)cccn2c1-c1cccc(Oc2cccc(CS(C)(=O)=O)c2)c1 [Example 116, 2-tert-butyl-3-(3-{3-[(methylsulfonyl)methyl]phenoxy}phenyl)imidazo[1,2-a]pyridine-8-carbonitrile] |  |  | 970 | > 1000 |
| CC(C)c1nc2c(Cl)cccn2c1-c1cccc(Oc2cccc(CS(C)(=O)=O)c2)c1 [Example 117, 8-chloro-2-isopropyl-3-(3-{3-[(methylsulfonyl)methyl]phenoxy}phenyl)imidazo[1,2-a]pyridine] |  |  | 460 | > 1000 |
| CCc1nc2c(C#N)cccn2c1-c1cccc(Oc2cccc(CS(C)(=O)=O)c2)c1 [Example 118, 2-ethyl-3-(3-{3-[(methylsulfonyl)methyl]phenoxy}phenyl)imidazo[1,2-a]pyridine-8-carbonitrile] |  |  | > 1000 | > 1000 |
| CC(C)c1nc2c(Cl)cccn2c1-c1ccc(Oc2cccc(S(C)(=O)=O)c2)cc1 [Example 121, 8-chloro-2-(1-methylethyl)-3-{4-[3-(methylsulfonyl)phenoxy]phenyl}imidazo[1,2-a]pyridine] |  |  | 460 | > 1000 |
| CCS(=O)(=O)c1cccc(Oc2ccc(-c3c(C(C)C)nc4c(Cl)cccn34)cc2)c1 [Example 122, 8-chloro-3-{4-[3-(ethylsulfonyl)phenoxy]phenyl}-2-(1-methylethyl)imidazo[1,2-a]pyridine] |  |  | 345 | > 1000 |
| Cc1nccn1Cc1nc2c(C(F)(F)F)cccn2c1-c1cccc(Oc2cccc(S(C)(=O)=O)c2)c1 [Example 130, 2-[(2-methyl-1H-imidazol-1-yl)methyl]-3-{3-[3-(methylsulfonyl)phenoxy]phenyl}-8-(trifluoromethyl)imidazo[1,2-a]pyridine] |  |  | 230 | > 1000 |
| CN(C)Cc1nc2c(C(F)(F)F)cccn2c1-c1cccc(Oc2cccc(S(C)(=O)=O)c2)c1 [Example 137, N,N-dimethyl-1-[3-{3-[3-(methylsulfonyl)phenoxy]phenyl}-8-(trifluoromethyl)imidazo[1,2-a]pyridin-2-yl]methanamine] |  |  | > 1000 | > 1000 |
| CCc1nc2c(C(F)(F)F)cccn2c1-c1cccc(Oc2cccc(S(=O)(=O)CCCC#N)c2)c1 [Example 140, 4-[(3-{3-[2-ethyl-8-(trifluoromethyl)imidazo[1,2-a]pyridin-3-yl]phenoxy}phenyl)sulfonyl]butanenitrile] |  |  | 69 | 910 |
| CCc1nc2c(C(F)(F)F)cccn2c1-c1cccc(Oc2ccc(C#N)c(S(C)(=O)=O)c2)c1 [Example 141, 4-{3-[2-ethyl-8-(trifluoromethyl)imidazo[1,2-a]pyridin-3-yl]phenoxy}-2-(methylsulfonyl)benzonitrile] |  |  | 700 | > 1000 |
| Cc1nc2c(C(F)(F)F)cccn2c1-c1cccc(Oc2ccc(C#N)c(S(C)(=O)=O)c2)c1 [Example 142, 2-(methylsulfonyl)-4-{3-[2-methyl-8-(trifluoromethyl)imidazo[1,2-a]pyridin-3-yl]phenoxy}benzonitrile] |  |  | > 1000 | > 1000 |

Source: US20110112135A1, “Imidazo [1,2-A] Pyridine Compounds” (priority 2007, published 2011)
